Measurements from patent publication US20140296354A1, “SYNTHESIS OF PEPTOID-BASED SMALL MOLECULAR GELATORS FROM MULTIPLE COMPONENT REACTIONS” (OLD DOMINION UNIVERSITY RESEARCH FOUNDATION, priority 2013, published 2014).

Key:
Gel melting temperatures = type: physicochemical; conditions: gel in DMSO:H2O (1:2) at its minimum gelation concentration
Protocol: Melting points were measured for compounds that were gelators in the DMSO:H2O (1:2) solvent system. In general, a compound was dissolved in heated solvent in a small vial at its minimum gelation concentration and transferred into a tube (e.g., an NMR tube) while the mixture was still warm. The tube was sonicated and cooled until a stable gel formed. The tube was immersed in an oil bath and the temperature of the solid-to-liquid phase transition was monitored using a thermometer as the oil bath temperature was changed. Gel melting temperatures are presented in […]

[1] = Optical micrographs of gels (morphology); type: physicochemical; conditions: for morphology of the gel: optical micrographs, FIG. 3
Excerpt: Solvent for 1(a-d) is DMSO:H2O (1:2); solvent for 1(e-f) is EtOH:H2O (1:2).
The EtOH/H2O gel has shown more uniform fibrous structures with an average diameter of 0.5 μm and over 300 μm in length (FIG. 3e, f).

[2] = Gelation test in solvents at room temperature; type: physicochemical; parameters: key to Gelation test result: I, insoluble; P, precipitating; S, soluble at ~20 mg/mL; G, gel at room temperature; number is minimum gelation concentration; conditions: for Gelation test result / minimum gelation concentration: room temperature; for MGC in DMSO:H2O (1:2): Table 2
Protocol: Gelation tests were performed by adding incremental amounts of compounds to a solvent or solvent system at room temperature and observing the results (i.e., gel formation, solubility of compounds, insolubility of compounds, or formation of a precipitate). […] The term “precipation” means that the compound dissolves upon heating and sonicating, however, it crashes out of solution when the heat is removed.
After the compounds were synthesized, they were screened for gelation properties. […] For the compounds with new chiral centers, they formed gels in aqueous environment preferentially.

SMILES	T1, temperature at which gel begins to melt (Gel melting temperatures) [°C]	T2, temperature at which gel is approximately half melted (Gel melting temperatures) [°C]	T3, temperature at which gel is fully melted (Gel melting temperatures) [°C]	morphology of the gel [1]	gelation efficiency (in words) [2]	Gelation test result ([2]; DMSO:H2O (1:1))	minimum gelation concentration ([2]; DMSO:H2O (1:1)) [mg/mL]	Gelation test result ([2]; DMSO:H2O (1:2))	minimum gelation concentration ([2]; DMSO:H2O (1:2)) [mg/mL]	MGC in DMSO:H2O (1:2) ([2]; DMSO:H2O (1:2)) [mg/mL]	Gelation test result ([2]; EtOH)	Gelation test result ([2]; EtOH:H2O (1:1))	minimum gelation concentration ([2]; EtOH:H2O (1:1)) [mg/mL]	Gelation test result ([2]; EtOH:H2O (1:2))	minimum gelation concentration ([2]; EtOH:H2O (1:2)) [mg/mL]	Gelation test result ([2]; H2O)	Gelation test result ([2]; Hexane)	melting point [°C]	also measured
CCOC(=O)CNC(=O)CN(Cc1ccc(OC)cc1)C(=O)c1ccc(Br)cc1 [Compound 21, Ethyl 2-(2-(N-(4-methoxybenzyl)-4-bromobenzamido)acetamido)acetate]	70	75	81	very long and uniform fibrous assemblies	most efficient gelator identified in this study	G	2.5	G	2.0	2.0	G	G	5.0	G	2.8	S (S, soluble at ~20 mg/mL)	I	123 to 125	average diameter of fibrous structures ([1]; EtOH/H2O gel): 0.5 μm; length of fibrous structures ([1]; EtOH/H2O gel): over 300 μm; minimum gelation concentration ([2]; EtOH): 20.0 mg/mL
CCOC(=O)CNC(=O)CN(C(=O)c1ccc(Br)cc1)C1C(OC)OC2COC(c3ccccc3)OC2C1O (stereo not shown) [Compound 26, Ethyl-2-(2-(4-bromo-N-(8-hydroxy-6-methoxy-2-phenyl-hexahydropyrano[3,2-d][1,3]dioxin-7-yl)benzamido)acetamido)acetate]	110	118	128	thinner fibrous assembly	more efficient gelator	G	10.0	G	6.6	6.6	I	G	20.0	G	10.0	P	I	207 to 209	concentration at which gel formed ([2]; DMSO/H2O (1:2)): 0.66 wt %
CCOC(=O)CNC(=O)CN(Cc1ccc(OC)cc1)C(=O)c1ccccc1 [Compound 23, Ethyl 2-(2-(N-(4-methoxybenzyl)benzamido)acetamido)acetate]	50	52	58			P		G	20.0	20.0	S (S, soluble at ~20 mg/mL)	P		P		S (S, soluble at ~20 mg/mL)	I	94 to 96	
C#CCCC(=O)N(CC(=O)NC1CCCCC1)Cc1ccccc1 [Compound 15, N-benzyl-N-(2-(cyclohexylamino)-2-oxoethyl)pent-4-ynamide]	95	100	110			G	20.0	G	20.0	20.0	P	P		G	20.0	S (S, soluble at ~20 mg/mL)	P^(b)	138 to 140	
O=C(CN(Cc1ccccc1)C(=O)c1ccc([N+](=O)[O-])cc1)NC1CCCCC1 [Compound 18, N-benzyl-N-(2-(cyclohexylamino)-2-oxoethyl)-4-nitrobenzamide]	91	95	110	rod or sheet like feature	not a very efficient gelator	G	20.0	G	10.0	10.0	P	G	20.0	P		P	I	190 to 192	concentration at which gel formed ([2]; DMSO aqueous mixture): 2 wt %

The next lines start with results.

T1, temperature at which gel begins to melt (Gel melting temperatures) [°C]	T2, temperature at which gel is approximately half melted (Gel melting temperatures) [°C]	T3, temperature at which gel is fully melted (Gel melting temperatures) [°C]	morphology of the gel [1]	gelation efficiency (in words) [2]	Gelation test result ([2]; DMSO:H2O (1:1))	minimum gelation concentration ([2]; DMSO:H2O (1:1)) [mg/mL]	Gelation test result ([2]; DMSO:H2O (1:2))	minimum gelation concentration ([2]; DMSO:H2O (1:2)) [mg/mL]	MGC in DMSO:H2O (1:2) ([2]; DMSO:H2O (1:2)) [mg/mL]	Gelation test result ([2]; EtOH)	Gelation test result ([2]; EtOH:H2O (1:1))	minimum gelation concentration ([2]; EtOH:H2O (1:1)) [mg/mL]	Gelation test result ([2]; EtOH:H2O (1:2))	minimum gelation concentration ([2]; EtOH:H2O (1:2)) [mg/mL]	Gelation test result ([2]; H2O)	Gelation test result ([2]; Hexane)	melting point [°C]	SMILES	also measured
					P		P			P	P		P		I	I	104 to 106	O=C(CN(Cc1ccccc1)C(=O)c1ccccc1)NC1CCCCC1 [Compound 16, N-benzyl-N-(2-(cyclohexylamino)-2-oxoethyl)benzamide]	
78	80	90			G	10.0	G	5.0	5.0	S (S, soluble at ~20 mg/mL)	G	20.0	P		P	I	168 to 170	O=C(CN(Cc1ccccc1)C(=O)c1ccc(Br)cc1)NC1CCCCC1 [Compound 17, N-benzyl-4-bromo-N-(2-(cyclohexylamino)-2-oxoethyl)benzamide]	
91	110	120			G	5.0	G	6.6	6.6	P	G	10.0	P		P	P	174 to 176	COc1ccc(CN(CC(=O)NC2CCCCC2)C(=O)c2ccc(Br)cc2)cc1 [Compound 20, N-(4-methoxybenzyl)-4-bromo-N-(2-(cyclohexylamino)-2-oxoethyl)benzamide]	
					P		P			G	P		G	20.0	I	P	261 to 263	COC1OC2COC(c3ccccc3)OC2C(O)C1N(CC(=O)NC1CCCCC1)C(=O)c1ccccc1 (stereo not shown) [Compound 24, N-(2-(cyclohexylamino)-2-oxoethyl)-N-(8-hydroxy-6-methoxy-2-phenyl-hexahydropyrano[3,2-d][1,3]dioxin-7-yl)benzamide]	minimum gelation concentration ([2]; EtOH): 20.0 mg/mL
					S (S, soluble at ~20 mg/mL)		P			S (S, soluble at ~20 mg/mL)	S (S, soluble at ~20 mg/mL)		P		P	I^(a)	122 to 124	CC(=O)N(CC(=O)NC1CCCCC1)Cc1ccccc1 [Compound 14, N-benzyl-N-(2-(cyclohexylamino)-2-oxoethyl)acetamide]	
